Measured values reported in publication PMC12302426, “Dihydrokoumine, a dual-target analgesic with reduced side effects isolated from a traditional Chinese medicine” (Journal of Advanced Research, 2024).

How the values were obtained:
[1] = target: T1, dopamine receptor D2 (Homo sapiens, UniProt P14416); experiment: DMR desensitization assay, HEK293-D2, probe dopamine; format: cell-based; settings: 100 μM DK
T1 construct: expressed in transfected cells; host or cells: HEK293-D2
Procedure: (§1) DMR assays were performed using an Epic® BT system (Corning, NY, USA). All used cell lines were directly seeded in Epic 384-well biosensor microplates with a seeding density of 25,000 cells per well. After being cultured for about 22 h, the cells formed a monolayer with a confluency of about 95 % in the cell culture medium. Then the cells were manually washed using assay buffer (1 × HBSS buffer, 10 mM HEPES, pH = 7.4) and maintained in 30 μL of the assay buffer for 1 h. All samples were dissolved in DMSO and diluted freshly with the assay buffer containing 0.1 % BSA.
(§2) The receptor selectivity was evaluated against a set of G protein-coupled receptors (GPCRs), including opioid receptor (Delta/Kappa/NOP), dopamine receptor (D1/D2), orphan receptor (GPR35), adrenergic receptor (α2A/β2), serotonin receptor (5HT2A), histamine receptor (H1) and cannabinoid receptor (CB1). Following a 1-hour pretreatment with DK, a 2-min baseline was established before introducing probes and monitoring DMR signals for another hour. The cells and probes were as follows: Delta, HEK293-Delta, SNC162; Kappa, HEK293-Kappa, ICI199441; NOP, HEK293-NOP, MCOPPB; D1, HEK293-D1, dopamine; D2, HEK293-D2, dopamine; GPR35, CHO-K1-hGPR35, zaprinast; 5HT2A, HEK293-5HT2A, 5-hydroxytryptamine; α2A, HEK293-α2A, L-Noradrenaline; β2, A431, isoprenaline; H1, A431, histamine; CB1, CHO-K1-CB1, CP 55940. […]

[2] = target: T2, serotonin receptor 5-HT2A (Homo sapiens, UniProt P28223); experiment: DMR desensitization assay, HEK293-5HT2A, probe 5-hydroxytryptamine; format: cell-based; settings: 100 μM DK
T2 construct: expressed in transfected cells; host or cells: HEK293-5HT2A
Procedure: as §1, §2

[3] = target: T3, M2R (Homo sapiens, UniProt P08172); experiment: FLIPR assay in HEK293-M2 cells (carbachol-induced Ca2+); format: cell-based; settings: DK pretreatment one hour
T3 construct: expressed in transfected cells
Procedure: (§3) FLIPR assay was carried out as reported earlier. Cell lines were seeded in 96-well plates with black walls (Greiner, USA) at 8.0 × 10^4 cells per well. After approximately 22 h of incubation, the cells were exposed to Calcium-6 dye (Molecular Devices, USA) in HBSS buffer supplemented with 20 mM HEPES (pH 7.4) at 37°C for one hour. Samples, redissolved in DMSO and housed in 96-well drug plates, underwent dilution with FLIPR buffer and subsequent automated introduction to the cells. […] […] Results were presented as fluorescence (arbitrary units) plotted against time.

[4] = system: C57BL/6 male mice; experiment: Rotarod test (motor coordination, sedation); format: in vivo; settings: DK 20, 40 mg/kg i.p., one hour before testing
Procedure: Motor coordination were evaluated by the rotarod test, which was conducted as previously reported. Six-week-old C57BL/6 male mice were used in […] (n = 6). Mice underwent a three-day training period, twice daily (9:00 am and 3:00 pm), to make them stay balanced on the rotarod apparatus (Columbus), with a 3 cm diameter and rotating at a constant 11 rpm. Motor coordination was evaluated through mice's endurance on the rotating rod. Selection criteria included mice maintaining balance for 60–120 s. On the fourth day, mice were intraperitoneally injected (5 mL/kg) with a solvent mixture, morphine (5 mg/kg), or DK (20, 40 mg/kg) one hour before testing. Latency to fall (in seconds) was recorded after placing mice on the rotarod, with a 120-second cut-off time.

[5] = target: T4, NOP opioid receptor (Homo sapiens, UniProt P41146); experiment: DMR agonist and desensitization assay in HEK293-NOP cells; format: cell-based
T4 construct: expressed in transfected cells; host or cells: HEK293-NOP
Procedure: as §1
(§4) The DMR assays were conducted as follows. […] In the case of the DMR desensitization assay, cells were pretreated with analytes for one hour before introducing a specific agonist at the indicated concentration, and the agonist-induced DMR signals were monitored for one hour. Finally, for the DMR antagonist assay, cells underwent a 1-hour pretreatment with an antagonist before the addition of a specific agonist at the indicated concentration, and subsequent DMR signals were recorded over one hour.
The receptor selectivity was evaluated against a set of G protein-coupled receptors (GPCRs), including opioid receptor (Delta/Kappa/NOP), dopamine receptor (D1/D2), orphan receptor (GPR35), adrenergic receptor (α2A/β2), serotonin receptor (5HT2A), histamine receptor (H1) and cannabinoid receptor (CB1). […]

[6] = system: C57BL/6 male mice; experiment: Hot-plate assay (acute pain); format: in vivo
Procedure: The hot-plate test in mice was conducted following previously established method. Six-week-old C57BL/6 male mice were used in hot-plate assay (n = 6). Hot-plate response latency (55°C) after drug treatment was used to measure antinociceptive effect, where response was defined by the animal either by licking paws, flicking paws or jumping. Mice were exposed to the hot plate (Ugo Basile model 7280, Comerio, Italy) for a maximum of 20 s to avoid tissue damage. After three days’ baseline measure, mice were injected intraperitoneally (5 mL/kg) with the solvent mixture, morphine (5 mg/kg) or DK (20, 40 mg/kg) and latency was tested 0.5-, 1-, 2-, 3- and 4- hours post-administration. Evaluation of MOR agonistic and M3R antagonistic activity of DK, naloxone (2 mg/kg) and oxotremorine (0.4 mg/kg) were first injected intraperitoneally, immediately followed by the injection of morphine (5 mg/kg, evaluation of MOR) or DK (20 mg/kg).

[7] = target: T5, cannabinoid receptor CB1 (Homo sapiens, UniProt P21554); experiment: DMR desensitization assay, CHO-K1-CB1, probe CP 55940; format: cell-based; settings: 100 μM DK
T5 construct: expressed in transfected cells; host or cells: CHO-K1-CB1
Procedure: as §1, §2

[8] = target: T6, M5R (Homo sapiens, UniProt P08912); experiment: FLIPR assay in CHO-M5 cells (carbachol-induced Ca2+); format: cell-based; settings: DK pretreatment one hour
T6 construct: expressed in transfected cells
Procedure: as §3

[9] = target: T7, adrenergic receptor α2A (Homo sapiens, UniProt P08913); experiment: DMR desensitization assay, HEK293-α2A, probe L-Noradrenaline; format: cell-based; settings: 100 μM DK
T7 construct: expressed in transfected cells; host or cells: HEK293-α2A
Procedure: as §1, §2

[10] = target: T8, mu opioid receptor (MOR) (Homo sapiens, UniProt P35372); experiment: DMR assay in HEK293T-Mu cells (agonist, desensitization, antagonist); format: cell-based
T8 construct: expressed in transfected cells; host or cells: HEK293T-Mu
Procedure: as §1, §4

T8 sequence (P35372 whole entry): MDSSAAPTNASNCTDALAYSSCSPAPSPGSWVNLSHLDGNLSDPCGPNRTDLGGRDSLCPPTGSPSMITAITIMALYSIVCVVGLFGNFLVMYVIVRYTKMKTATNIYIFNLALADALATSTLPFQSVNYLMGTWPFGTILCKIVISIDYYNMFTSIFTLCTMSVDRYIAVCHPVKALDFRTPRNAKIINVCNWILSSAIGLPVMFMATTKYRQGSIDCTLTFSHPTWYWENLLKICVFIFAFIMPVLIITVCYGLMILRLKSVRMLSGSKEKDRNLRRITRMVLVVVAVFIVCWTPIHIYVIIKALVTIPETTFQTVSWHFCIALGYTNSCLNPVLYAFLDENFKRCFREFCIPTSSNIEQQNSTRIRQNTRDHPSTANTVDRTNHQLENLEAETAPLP
T4 sequence (P41146 whole entry): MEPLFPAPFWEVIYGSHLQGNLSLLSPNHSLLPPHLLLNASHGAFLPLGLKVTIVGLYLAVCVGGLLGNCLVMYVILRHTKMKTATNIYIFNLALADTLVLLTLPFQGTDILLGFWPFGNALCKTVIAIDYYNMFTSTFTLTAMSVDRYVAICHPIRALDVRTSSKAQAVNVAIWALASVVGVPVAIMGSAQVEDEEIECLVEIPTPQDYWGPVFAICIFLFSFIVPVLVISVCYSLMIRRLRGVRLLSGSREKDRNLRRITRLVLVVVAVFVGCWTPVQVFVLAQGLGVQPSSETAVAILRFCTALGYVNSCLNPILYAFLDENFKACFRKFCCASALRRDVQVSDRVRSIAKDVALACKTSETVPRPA
T5 sequence (P21554 whole entry): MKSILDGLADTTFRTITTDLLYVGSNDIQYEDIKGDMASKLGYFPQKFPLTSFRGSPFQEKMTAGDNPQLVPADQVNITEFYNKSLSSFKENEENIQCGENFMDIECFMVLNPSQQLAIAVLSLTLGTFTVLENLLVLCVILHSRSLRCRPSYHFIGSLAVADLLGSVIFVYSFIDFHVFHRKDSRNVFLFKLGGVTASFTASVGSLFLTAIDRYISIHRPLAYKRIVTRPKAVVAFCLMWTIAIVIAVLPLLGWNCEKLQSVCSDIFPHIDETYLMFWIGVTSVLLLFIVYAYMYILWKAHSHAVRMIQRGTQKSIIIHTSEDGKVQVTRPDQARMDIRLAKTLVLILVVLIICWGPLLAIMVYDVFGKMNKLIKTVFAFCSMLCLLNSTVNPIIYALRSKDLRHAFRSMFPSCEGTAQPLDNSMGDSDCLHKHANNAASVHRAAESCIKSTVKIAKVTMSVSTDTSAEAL
T7 sequence (P08913 whole entry): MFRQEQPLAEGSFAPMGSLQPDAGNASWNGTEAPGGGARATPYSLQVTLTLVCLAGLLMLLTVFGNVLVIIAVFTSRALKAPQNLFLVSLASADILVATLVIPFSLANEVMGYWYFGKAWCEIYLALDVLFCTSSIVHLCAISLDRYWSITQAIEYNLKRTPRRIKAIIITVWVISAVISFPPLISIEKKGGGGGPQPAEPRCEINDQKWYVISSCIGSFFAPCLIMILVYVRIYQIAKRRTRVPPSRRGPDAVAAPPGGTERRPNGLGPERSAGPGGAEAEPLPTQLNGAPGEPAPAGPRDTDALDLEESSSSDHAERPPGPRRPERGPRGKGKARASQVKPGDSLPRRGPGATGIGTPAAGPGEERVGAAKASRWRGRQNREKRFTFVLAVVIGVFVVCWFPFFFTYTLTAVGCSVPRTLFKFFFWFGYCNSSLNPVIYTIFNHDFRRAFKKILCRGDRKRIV
T6 sequence (P08912 whole entry): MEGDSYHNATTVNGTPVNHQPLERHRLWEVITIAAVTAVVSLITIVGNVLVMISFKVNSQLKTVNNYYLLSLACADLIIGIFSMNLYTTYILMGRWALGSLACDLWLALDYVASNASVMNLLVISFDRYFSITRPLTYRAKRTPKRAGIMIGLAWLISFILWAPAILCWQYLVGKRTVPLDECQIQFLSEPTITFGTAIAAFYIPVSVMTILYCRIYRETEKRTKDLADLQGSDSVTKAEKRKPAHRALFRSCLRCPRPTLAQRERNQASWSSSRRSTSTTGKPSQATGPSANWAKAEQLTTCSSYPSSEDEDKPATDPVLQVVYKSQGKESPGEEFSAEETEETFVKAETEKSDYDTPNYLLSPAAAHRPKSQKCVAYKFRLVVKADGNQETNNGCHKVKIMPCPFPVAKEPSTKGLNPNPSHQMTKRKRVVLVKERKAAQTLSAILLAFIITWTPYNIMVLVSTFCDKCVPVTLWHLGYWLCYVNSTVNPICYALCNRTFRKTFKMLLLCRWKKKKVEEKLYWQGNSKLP
T2 sequence (P28223 whole entry): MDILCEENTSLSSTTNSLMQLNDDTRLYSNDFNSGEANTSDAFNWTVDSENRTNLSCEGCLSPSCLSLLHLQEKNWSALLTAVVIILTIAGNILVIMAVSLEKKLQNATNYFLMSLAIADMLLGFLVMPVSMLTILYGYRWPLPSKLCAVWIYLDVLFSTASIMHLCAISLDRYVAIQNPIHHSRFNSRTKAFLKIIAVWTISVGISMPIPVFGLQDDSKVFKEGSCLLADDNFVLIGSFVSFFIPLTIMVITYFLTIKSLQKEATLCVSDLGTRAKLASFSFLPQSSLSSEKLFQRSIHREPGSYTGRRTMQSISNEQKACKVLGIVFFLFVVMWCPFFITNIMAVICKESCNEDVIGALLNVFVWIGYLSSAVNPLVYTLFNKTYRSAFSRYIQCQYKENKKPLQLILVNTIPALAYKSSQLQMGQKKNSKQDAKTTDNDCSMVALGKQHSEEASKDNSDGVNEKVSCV
T1 sequence (P14416 whole entry): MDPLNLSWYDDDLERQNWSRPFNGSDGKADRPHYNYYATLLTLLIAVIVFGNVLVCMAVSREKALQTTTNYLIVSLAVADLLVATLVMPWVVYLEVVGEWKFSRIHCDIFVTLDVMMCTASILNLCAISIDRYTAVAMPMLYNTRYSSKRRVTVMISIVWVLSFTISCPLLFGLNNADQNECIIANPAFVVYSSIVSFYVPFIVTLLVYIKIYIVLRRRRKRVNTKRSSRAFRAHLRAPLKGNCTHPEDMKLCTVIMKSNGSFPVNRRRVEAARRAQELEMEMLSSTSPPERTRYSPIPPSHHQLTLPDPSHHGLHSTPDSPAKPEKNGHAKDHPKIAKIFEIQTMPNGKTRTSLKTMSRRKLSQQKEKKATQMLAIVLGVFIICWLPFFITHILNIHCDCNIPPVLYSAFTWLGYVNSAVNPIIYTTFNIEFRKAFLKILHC
T3 sequence (P08172 whole entry): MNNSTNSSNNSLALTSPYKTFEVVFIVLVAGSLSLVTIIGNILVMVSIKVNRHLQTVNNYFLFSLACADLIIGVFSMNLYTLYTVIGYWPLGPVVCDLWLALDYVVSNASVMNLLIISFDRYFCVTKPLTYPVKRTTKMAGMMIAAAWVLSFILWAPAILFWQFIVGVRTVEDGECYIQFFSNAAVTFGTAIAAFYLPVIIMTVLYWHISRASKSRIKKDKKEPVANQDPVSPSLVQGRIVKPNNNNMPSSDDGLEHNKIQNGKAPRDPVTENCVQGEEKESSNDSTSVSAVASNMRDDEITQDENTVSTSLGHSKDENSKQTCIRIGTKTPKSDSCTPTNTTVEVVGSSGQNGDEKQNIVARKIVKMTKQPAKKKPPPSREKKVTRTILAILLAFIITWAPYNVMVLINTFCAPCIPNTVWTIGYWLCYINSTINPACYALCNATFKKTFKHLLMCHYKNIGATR

C=CC12CN(C)C3CC14c1ccccc1NC4C1CC2C3CO1 (centres unmarked) [DK]
reduction of probe DMR response (desensitization) [1]: almost unable to reduce the response | reduction of probe DMR response (desensitization) [2]: almost unable to reduce the response | inhibition of carbachol-induced Ca2+ response [3]: could not concentration-dependently inhibit | sedative effect (locomotion, latency to fall) [4]: not a sedative at the tested doses | DMR agonist response ([5]; HEK293-NOP cells): unable to trigger a concentration-dependent DMR response | probe-induced DMR response after DK pretreatment ([5]; HEK293-NOP, 25 nM MCOPPB, pretreatment one hour): had little effect on the DMR response produced by the respective probes | effect of naloxone on pain threshold in hot plate assay ([6]; DK 20 mg/kg, naloxone 2 mg/kg): naloxone failed to decrease the pain threshold of DK | effect of oxotremorine on antinociception in hot plate assay ([6]; DK 20 mg/kg, oxotremorine 0.4 mg/kg): oxotremorine markedly diminished the antinociceptive efficacy of DK | duration of antinociception ([6]; DK 20, 40 mg/kg i.p.): at least 3 h | antinociception (hot-plate response latency) ([6]; DK 20, 40 mg/kg i.p., 55°C): potent antinociception in a dose-dependent manner | reduction of probe DMR response (desensitization) [7]: almost unable to reduce the response | inhibition of carbachol-induced Ca2+ response [8]: could not concentration-dependently inhibit | reduction of probe DMR response (desensitization) [9]: almost unable to reduce the response | maximum DMR response compared with endomorphin-1 [10]: half of the maximum DMR response of endomorphin-1 | DMR response after naloxone pretreatment ([10]; 100 μM DK, naloxone pretreatment one hour): could be antagonized by naloxone | EC50 ([10]; DMR agonist assay, read-out: EC50 of DMR response): 16.3 ± 1.05 µM | concentration-dependent DMR response at MOR compared with purified DK ([10]; semisynthesized material): its activity was close to that of purified DK
